{"source": "patent US9751919B2", "about": "“Antimicrobial compositions comprising a hyaluronic acid binding peptide and a β-lactam antibiotic” (priority 2012, dated 2017)", "assay_type_in_all_cases": "cell-based, Staphylococcus aureus", "key": {"CA-MRSA": {"tested_on": "CA-MRSA", "test": "MIC (CLSI broth dilution), agent alone", "conditions": "CA-MRSA 69615 (USA400); agent alone", "procedure,_shortened": "(§1)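 S. aureus isolates were tested by CLSI 2005 broth macrodilution in doubling dilutions of cation-adjusted Mueller-Hinton broth. Inoculum was about 5×10^5 CFU/ml, with 24 h incubation in ambient air. MIC was the lowest concentration inhibiting visible growth, with an MSSA and ATCC QC strains as controls.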"}, "HA-MRSA": {"tested_on": "HA-MRSA", "test": "MIC (CLSI broth dilution), agent alone", "conditions": "HA-MRSA 77090 (USA100/800); agent alone", "procedure,_shortened": "as §1"}, "MSSA [1]": {"tested_on": "MSSA", "test": "MIC (CLSI broth dilution), agent alone", "conditions": "MSSA 79333; agent alone", "procedure,_shortened": "as §1"}, "MSSA [2]": {"tested_on": "MSSA", "test": "Checkerboard assay (FIC index)", "conditions": "antibiotic combined with PEP35", "procedure": "(§2) Checkerboard assays were carried out as described by Bonapace et al.\n(§3) Diagnostic Microbiology and Infectious Diseases 2002; 44:363-366. In brief, checkerboard assays were performed in 96 well microtitre trays using an 8-by-8 well configuration. […] 96-well custom designed microtitre plates contained 100 ul/well of cation adjusted Mueller-Hinton broth (eg. for Enterobacteriaceae) with or without lysed horse blood (2-5% V/V) [eg. for S. pneumoniae] and were inoculated to achieve a final concentration of approximately 5×10^5 CFU/ml and incubated in ambient air for 24 hours prior to reading. Colony counts were performed periodically to confirm inocula. Quality control was performed every two weeks using a variety of ATCC QC organisms including; S. pneumoniae 49619, S. aureus 29213, E. faecalis 29212, E. coli 25922 and P. aeruginosa 27853. […] All peptides were assessed for synergy with β-lactams and vancomycin. For all antimicrobials as well as the peptides, CLSI criteria were used.\n(§4) The fractional inhibitory concentration index (FIC index) was used to interpret synergy, antagonism or additivity/indifference. FIC index=FIC of drug A+FIC of drug B where:\n(§5) The FIC of drug A and drug B was calculated as follows, FIC drug A=MIC of drug A in combination/MIC of drug A alone and FIC of drug B=MIC of drug B in combination/MIC of drug B alone. Synergy was defined as FIC index ≦0.5, additivity/indifference defined as a FIC between 0.5 and 4 and antagonism defined as an FIC index >4.\n(§6) The checkerboard assays were carried out as described by Eliopoulos and Moellering (Chapter 9) in Antibiotic in Laboratory Medicine, Lorian Ed. 1996 as well as Bonapace et al. Diagnostic Microbiology and Infectious Diseases 2002; 44:363-366 and Bonapace et al. Diagnostic Microbiology and Infectious Diseases 2000; 38:43-50. In brief, checkerboard assays were performed in 96 well microtitre trays using an 8-by-8 well configuration. […] 96-well custom designed microtitre plates contained 100 ul/well of cation adjusted Mueller-Hinton broth (eg. for Enterobacteriaceae) with or without lysed horse blood (2-5% V/V) [eg. for S. pneumoniae] and were inoculated to achieve a final concentration of approximately 5×10^5 CFU/ml and incubated in ambient air for 24 hours prior to reading. Colony counts were performed periodically to confirm inocula. Quality control was performed every two weeks using a variety of ATCC QC organisms including; S. pneumoniae 49619, S. aureus 29213, E. faecalis 29212, E. coli 25922 and P. aeruginosa 27853. For all antimicrobials as well as PEP35, CLSI criteria was used.\n(§7) The FIC of drug A and drug B is calculated as follows, FIC drug A=MIC of drug A in combination/MIC of drug A alone and FIC of drug B=MIC of drug B in combination/MIC of drug B alone. Synergy is defined as FIC index ≦0.5, additivity/indifference FIC >0.5-4 and antagonism FIC index >4.\n(§8) Antimicrobials used included PEP35, cefazolin, ceftriaxone, vancomycin, linezolid, tigecycline and daptomycin versus Gram-positive cocci and PEP35, gentamicin, levofloxacin, piperacillin/tazobactam, meropenem and colistin (Polymyxin E) versus Gram-negative bacilli. These agents were obtained as laboratory grade powders from their respective manufacturers. Stock solutions were prepared and dilutions made as described by the Clinical Laboratory Standards Institute (2005 CLSI).\n(§9) Organisms included Gram-positive cocci (2 strains of each): Methicillin-susceptible Staphylococcus aureus (MSSA), community-associated (CA) and healthcare-associated (HA) methicillin-resistant Staphylococcus aureus (MRSA), vancomycin-intermediate Staphylococcus aureus (VISA), vancomycin-resistant Staphylococcus aureus (VRSA), methicillin-resistant Staphylococcus epidermidis (MRSE), Streptococcus pyogenes, Streptococcus agalactiae, Streptococcus pneumoniae, Enterococcus faecalis, Enterococcus faecium and vancomycin-resistant enterococcus (VRE). […]"}, "VISA": {"tested_on": "VISA", "test": "Checkerboard assay (FIC index)", "conditions": "antibiotic combined with PEP35", "procedure": "as §2, §3, §4, §5, §6, §7, §8, §9"}}, "note": "Values joined by “and” are separate entries in the source; they are usually repeats but may differ in a detail not shown here. Identical values can stand only once.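 For Avg ΣFIC (range) in this document: each agent diluted from 0.03 to 4 times its MIC.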", "data": [{"smiles": "CN[C@H](CC(C)C)C(=O)N[C@H]1C(=O)N[C@@H](CC(N)=O)C(=O)N[C@H]2C(=O)N[C@H]3C(=O)N[C@H](C(=O)N[C@H](C(=O)O)c4cc(O)cc(O)c4-c4cc3ccc4O)[C@H](O)c3ccc(c(Cl)c3)Oc3cc2cc(c3O[C@@H]2O[C@H](CO)[C@@H](O)[C@H](O)[C@H]2O[C@H]2C[C@](C)(N)[C@H](O)[C@H](C)O2)Oc2ccc(cc2Cl)[C@H]1O", "note": "[Vancomycin]", "values": [{"measurement": "MIC", "setting": "CA-MRSA", "result": "1/1"}, {"measurement": "MIC", "setting": "HA-MRSA", "result": "1/1"}, {"measurement": "MIC", "setting": "MSSA [1]", "result": "1 and 0.5"}, {"measurement": "Avg ΣFIC (range)", "setting": "MSSA [2]; MSSA 79333", "result": "1.11 (1.0-1.25)"}, {"measurement": "Avg ΣFIC (range)", "setting": "MSSA [2]; MSSA 83424", "result": "1.19 (1.03-1.5)"}, {"measurement": "Avg ΣFIC (range)", "setting": "VISA; VISA 92", "result": "1.1 (1.0-1.25)"}, {"measurement": "Avg ΣFIC (range)", "setting": "VISA; VISA 95", "result": "1.1 (1.03-1.25)"}, {"measurement": "Avg ΣFIC (range)", "setting": "VISA; VISA 96", "result": "0.88 (0.53-0.125)"}]}]}
